Test results from the NIST ThermoML archive (doi:10.1021/je8008254).
Several values for one entry are separate records, joined by “and”; a condition that tells them apart may be missing. Equal entries are not always repeated.

What was measured:
[1] = for mass density / viscosity: 101 kPa, Liquid
[2] = xn = mol fraction of the nth substance listed; settings: 101 kPa, Liquid

CO [methanol]
[1]
Settings	mass density [kg/m3]	viscosity [mPa·s]
298.15 K	786.64	0.577
308.15 K	777.15	0.525
318.15 K	767.59	0.481
328.15 K	757.83	0.443

CCCCn1cc[n+](C)c1.N#C[S-] [1-butyl-3-methylimidazolium thiocyanate] + CCO
[2]
Settings	mass density [kg/m3]	viscosity [mPa·s]
298.15 K, x1 = 0.0473	829.74	1.48
298.15 K, x1 = 0.1129	876.41	2.07
298.15 K, x1 = 0.1877	916.69	2.95
298.15 K, x1 = 0.2943	957.41	4.7
298.15 K, x1 = 0.3637	978.05	6.36
298.15 K, x1 = 0.5306	1014.59	11.7
298.15 K, x1 = 0.696	1039.72	19.7
298.15 K, x1 = 0.8114	1052.9	27.4
298.15 K, x1 = 0.9174	1062.78	36.2
298.15 K, x1 = 1	1069.79	51.7
308.15 K, x1 = 0.0473	821.61	1.23
308.15 K, x1 = 0.1129	868.74	1.71
308.15 K, x1 = 0.1877	909.46	2.41
308.15 K, x1 = 0.2943	950.56	3.77
308.15 K, x1 = 0.3637	971.37	4.95
308.15 K, x1 = 0.5306	1008.22	8.89
308.15 K, x1 = 0.696	1033.57	14.3
308.15 K, x1 = 0.8114	1046.84	19.2
308.15 K, x1 = 0.9174	1056.82	24.7
308.15 K, x1 = 1	1063.89	34.9
318.15 K, x1 = 0.0473	813.39	1.05
318.15 K, x1 = 0.1129	861.06	1.44
318.15 K, x1 = 0.1877	902.2	2.01
318.15 K, x1 = 0.2943	943.72	3.1
318.15 K, x1 = 0.3637	964.72	3.94
318.15 K, x1 = 0.5306	1001.9	7
318.15 K, x1 = 0.696	1027.47	10.9
318.15 K, x1 = 0.8114	1040.84	14.2
318.15 K, x1 = 0.9174	1050.88	17.8
318.15 K, x1 = 1	–	24.2
328.15 K, x1 = 0.0473	805.05	0.896
328.15 K, x1 = 0.1129	853.27	1.23
328.15 K, x1 = 0.1877	894.91	1.71
328.15 K, x1 = 0.2943	936.87	2.59
328.15 K, x1 = 0.3637	958.11	3.24
328.15 K, x1 = 0.5306	995.61	5.97
328.15 K, x1 = 0.696	1021.4	8.54
328.15 K, x1 = 0.8114	1034.86	10.9
328.15 K, x1 = 0.9174	1044.99	13.4
328.15 K, x1 = 1	1052.19	16.7
338.15 K, x1 = 0.0473	796.53	0.78
338.15 K, x1 = 0.1129	845.44	1.06
338.15 K, x1 = 0.1877	887.57	1.47
338.15 K, x1 = 0.2943	930.03	2.2
338.15 K, x1 = 0.3637	951.47	2.75
338.15 K, x1 = 0.5306	989.36	4.56
338.15 K, x1 = 0.696	1015.36	6.84
338.15 K, x1 = 0.8114	1028.95	8.64
338.15 K, x1 = 0.9174	1039.15	10.5
338.15 K, x1 = 1	1046.43	12.73
348.15 K, x1 = 0.0473	787.85	–
348.15 K, x1 = 0.1129	837.47	0.926
348.15 K, x1 = 0.1877	880.22	1.28
348.15 K, x1 = 0.2943	923.18	1.9
348.15 K, x1 = 0.3637	944.88	–
348.15 K, x1 = 0.5306	983.14	3.8
348.15 K, x1 = 0.696	1009.4	5.58
348.15 K, x1 = 0.8114	1023.05	7.01
348.15 K, x1 = 0.9174	1033.34	8.39
348.15 K, x1 = 1	1040.7	9.98

CCO [ethanol]
[1]
Settings	mass density [kg/m3]	viscosity [mPa·s]
298.15 K	785.17	1.09
308.15 K	776.49	0.912
318.15 K	767.67	0.774
328.15 K	758.65	0.664
338.15 K	749.35	0.589
348.15 K	739.75	0.512

CCCCn1cc[n+](C)c1.N#C[S-] [1-butyl-3-methylimidazolium thiocyanate] + CO
[2]
Settings	mass density, 298.15 K [kg/m3]	mass density, 308.15 K [kg/m3]	mass density, 318.15 K [kg/m3]	mass density, 328.15 K [kg/m3]	viscosity, 298.15 K [mPa·s]	viscosity, 308.15 K [mPa·s]	viscosity, 318.15 K [mPa·s]	viscosity, 328.15 K [mPa·s]
x1 = 0.0154	810	800.87	791.7	782.41	0.665	0.593	0.536	0.49
x1 = 0.0531	854.66	846.16	837.63	829.05	0.871	0.765	0.681	0.613
x1 = 0.0964	892.65	884.64	876.63	868.59	1.18	1.02	0.892	0.792
x1 = 0.1443	924.63	917.04	909.43	901.81	1.62	1.39	1.2	1.06
x1 = 0.2076	954.94	947.69	940.47	933.23	2.34	1.96	1.67	1.45
x1 = 0.3602	1001.45	994.74	988.06	981.43	5.15	4.13	3.33	2.82
x1 = 0.5083	1028.1	1021.68	1015.3	1008.99	9.75	7.55	6.03	4.85
x1 = 0.6227	1041.88	1035.64	1029.43	1023.26	14.5	10.8	8.4	6.68
x1 = 0.7114	1050.29	1044.13	1038.01	1031.94	19.4	14.1	10.7	8.4
x1 = 0.8006	1057.46	1051.39	1045.36	1039.38	25.4	18	13.4	10.32
x1 = 0.9046	1064.23	1058.22	1052.27	1046.37	34.1	23.3	16.9	12.78
x1 = 1	1069.79	1063.89	1058.02	1052.19	51.7	34.9	24.2	16.7

CCCO [propan-1-ol] + CCCCn1cc[n+](C)c1.N#C[S-]
[2], x2 = 0
Settings	mass density [kg/m3]	viscosity [mPa·s]
298.15 K	799.52	1.94
308.15 K	791.41	1.54
318.15 K	783.15	1.24
328.15 K	774.66	1.02
338.15 K	765.91	0.842
348.15 K	756.84	0.71

CCCCn1cc[n+](C)c1.N#C[S-] [1-butyl-3-methylimidazolium thiocyanate]
[1]
Settings	mass density [kg/m3]	viscosity
298.15 K	1069.79	51.7 mPa·s
308.15 K	1063.89	34.9 mPa·s
318.15 K	1058.02	24.2 mPa·s
328.15 K	1052.19	16.7 mPa·s
338.15 K	1046.43	12.73 mPa·s and 12.7 mPa·s
348.15 K	1040.7	9.98 mPa·s

Settings	Glass transition temperature [°C]
[1], Glass, DTA	-91.5

CCCO [propan-1-ol]
[1]
Settings	mass density [kg/m3]	viscosity [mPa·s]
298.15 K	799.52	1.94
308.15 K	791.41	1.54
318.15 K	783.15	1.24
328.15 K	774.66	1.02
338.15 K	765.91	0.842
348.15 K	756.84	0.71

CO [methanol] + CCCCn1cc[n+](C)c1.N#C[S-]
[2], x2 = 0
Settings	mass density [kg/m3]	viscosity [mPa·s]
298.15 K	786.64	0.577
308.15 K	777.15	0.525
318.15 K	767.59	0.481
328.15 K	757.83	0.443

CCO [ethanol] + CCCCn1cc[n+](C)c1.N#C[S-]
[2], x2 = 0
Settings	mass density [kg/m3]	viscosity [mPa·s]
298.15 K	785.17	1.09
308.15 K	776.49	0.912
318.15 K	767.67	0.774
328.15 K	758.65	0.664
338.15 K	749.35	0.589
348.15 K	739.75	0.512
